Reference: patent publication US20110152166A1, “METHOD OF MODULATION OF PROTEIN PHOSPHORYLATION-DEPENDENT CONFORMATIONAL TRANSITIONS WITH LOW MOLECULAR WEIGHT COMPOUNDS” (priority 2006, published 2011)
Residue numbers refer to the chain shown, from its start. Read-outs that look alike come from different tables or passages of the source. Ends that are not written are not given here.

Legend:
Experiment in all cases: PDK1 activity assay with T308tide
Type in all cases: biochemical
GST-PDK1 [Lys115Met] = target: T1, GST-PDK1 [Lys115Met] (Homo sapiens, UniProt O15530, K115M)
T1 construct: different protein constructs, comprising the full length protein or the catalytic domain alone; made in house; host or cells: HEK293 cells (pEBG-2T-PDK1 mutant)

GST-PDK1 [Arg131Lys] = target: T2, GST-PDK1 [Arg131Lys] (Homo sapiens, UniProt O15530, R131K)
T2 construct: different protein constructs, comprising the full length protein or the catalytic domain alone; made in house; host or cells: HEK293 cells (pEBG-2T-PDK1 mutant)
T2 sequence (O15530 1-556 R131K): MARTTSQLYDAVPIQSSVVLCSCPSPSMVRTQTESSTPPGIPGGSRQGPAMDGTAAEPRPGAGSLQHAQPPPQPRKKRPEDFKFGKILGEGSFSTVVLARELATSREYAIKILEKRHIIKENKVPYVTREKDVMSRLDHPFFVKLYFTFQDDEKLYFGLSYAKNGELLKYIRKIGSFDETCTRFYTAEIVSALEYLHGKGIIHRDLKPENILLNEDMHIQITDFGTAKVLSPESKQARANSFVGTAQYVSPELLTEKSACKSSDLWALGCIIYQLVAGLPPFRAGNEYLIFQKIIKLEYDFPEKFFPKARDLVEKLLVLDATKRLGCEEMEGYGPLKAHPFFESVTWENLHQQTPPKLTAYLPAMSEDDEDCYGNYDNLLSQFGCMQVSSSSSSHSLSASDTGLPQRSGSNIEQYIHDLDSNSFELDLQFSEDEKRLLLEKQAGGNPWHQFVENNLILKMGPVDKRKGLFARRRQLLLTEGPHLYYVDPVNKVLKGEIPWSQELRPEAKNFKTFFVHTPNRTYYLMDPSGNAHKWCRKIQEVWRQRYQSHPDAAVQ

GST-PDK1 [Val124Ala] = target: T3, GST-PDK1 [Val124Ala] (Homo sapiens, UniProt O15530, V124A)
T3 construct: different protein constructs, comprising the full length protein or the catalytic domain alone; made in house; host or cells: HEK293 cells (pEBG-2T-PDK1 mutant)
T3 sequence (O15530 1-556 V124A): T2 sequence (O15530 1-556 R131K) with V124A, K131R

GST-PDK1 [Leu155Glu] = target: T4, GST-PDK1 [Leu155Glu] (Homo sapiens, UniProt O15530, L155E); details: for AC50: GST-PDK1 [Leu155Glu]
T4 construct: different protein constructs, comprising the full length protein or the catalytic domain alone; made in house; host or cells: HEK293 cells (pEBG-2T-PDK1 mutant)
T4 sequence (O15530 1-556 L155E): T2 sequence (O15530 1-556 R131K) with K131R, L155E

T1 sequence (O15530 whole entry K115M, the tested form may be a part): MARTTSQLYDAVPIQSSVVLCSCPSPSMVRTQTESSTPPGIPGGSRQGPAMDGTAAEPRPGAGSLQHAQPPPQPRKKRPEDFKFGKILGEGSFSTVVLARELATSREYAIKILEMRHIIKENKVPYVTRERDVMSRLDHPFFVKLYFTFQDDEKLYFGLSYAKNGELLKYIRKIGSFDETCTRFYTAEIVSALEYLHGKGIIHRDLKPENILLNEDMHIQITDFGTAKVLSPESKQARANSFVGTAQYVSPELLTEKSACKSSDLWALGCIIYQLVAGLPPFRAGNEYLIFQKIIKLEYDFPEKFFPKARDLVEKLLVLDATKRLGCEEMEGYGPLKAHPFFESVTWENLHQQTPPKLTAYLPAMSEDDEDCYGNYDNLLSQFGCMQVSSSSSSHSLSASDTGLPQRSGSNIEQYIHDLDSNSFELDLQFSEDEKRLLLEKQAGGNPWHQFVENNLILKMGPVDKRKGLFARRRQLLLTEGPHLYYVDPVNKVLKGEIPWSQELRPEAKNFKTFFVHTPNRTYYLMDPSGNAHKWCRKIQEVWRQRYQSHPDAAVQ

| Compound | AC50 (GST-PDK1 [Lys115Met]; read-out: AC50) | AC50 (GST-PDK1 [Arg131Lys]) | Max. activity (GST-PDK1 [Arg131Lys]) | AC50 (GST-PDK1 [Val124Ala]) | Max. activity (GST-PDK1 [Val124Ala]) | AC50 (GST-PDK1 [Leu155Glu]) | activation of PDK1 mutant (in words) (GST-PDK1 [Leu155Glu]; Leu155 replaced with Glu, constitutively active) | AC50 (GST-PDK1 [Lys115Met]) |
| --- | --- | --- | --- | --- | --- | --- | --- | --- |
| O=C(O)CSC(CC(=O)c1ccc(Cl)cc1)c1ccccc1 (stereo not shown) [Compound 1] | > 200 µM | 51 ± 15 µM | 1.13 ± 0.09 U/mg | > 200000 nM | 2.6 ± 0.5 U/mg | No Effect | could not be further activated |  |
| REPRILSEEEQEMFRDFDYIADWC [PIFtide, reference compound] |  | 0.13 ± 0.02 µM | 0.77 ± 0.02 U/mg | 210 ± 30 nM | 1.91 ± 0.06 U/mg | No Effect |  | No Effect |
